The record followed here is ChEMBL document CHEMBL1149449 (Bioorg Med Chem Lett, 2006).

Molecules are shown by their SMILES. pIC50: −log10 of the molar value. A value given as a limit tells only on which side of the number the result lay.

Experiment [1] deals with Human immunodeficiency virus 1. The experiment can be described thus: Antiviral activity in cells infected with wild-type HIV1. The class given is functional. The note with it: read-out: CIC95.
Experiment [2] relates to Human immunodeficiency virus 1. The experiment can be described thus: Antiviral activity in cells infected with wild-type HIV1 1002-60C mutant in presence of NHS. The class given is functional. The note with it: Human immunodeficiency virus 1, 1002-60C; read-out: CIC95.
In experiment [3] the test system is Human immunodeficiency virus 1. The experiment can be described thus: Antiviral activity in cells infected with wild-type HIV1 1002-60C mutant. The class given is functional. The note with it: Human immunodeficiency virus 1, 1002-60C; read-out: CIC95.
The test system of experiment [4] is Human immunodeficiency virus 1. The experiment can be described thus: Antiviral activity in cells infected with wild-type HIV1 1026-60C mutant in presence of NHS. The class given is functional. The note with it: Human immunodeficiency virus 1, 1026-60C; read-out: CIC95.
The target in experiment [5] is Human immunodeficiency virus type 1 protease (Human immunodeficiency virus 1, UniProt Q72874). Description: Inhibitory activity against isolated wild-type HIV1 protease.
In experiment [6] the test system is Human immunodeficiency virus 1. The experiment can be described thus: Antiviral activity in cells infected with wild-type HIV1 NL4-3 in presence of FBS. The class given is functional. The note with it: Human immunodeficiency virus 1, NL4-3; read-out: CIC95.
The subject of experiment [7] is Human immunodeficiency virus 1. The experiment can be described thus: Antiviral activity in cells infected with wild-type HIV1 H93B in presence of FBS. The class given is functional. The note with it: Human immunodeficiency virus 1, H93B; read-out: CIC95.
Experiment [8] deals with Human immunodeficiency virus 1. Description: Antiviral activity in cells infected with wild-type HIV1 H93B in presence of NHS. The note with it: Human immunodeficiency virus 1, H93B; read-out: CIC95. The class given is functional.
Experiment [9] has as its system Human immunodeficiency virus 1. The experiment can be described thus: Antiviral activity in cells infected with wild-type HIV1 4X mutant. The class given is functional. The note with it: Human immunodeficiency virus 1, 4X; read-out: CIC95.
Experiment [10] concerns Human immunodeficiency virus 1. Description: Antiviral activity in cells infected with wild-type HIV1 4X mutant in presence of NHS. The class given is functional. The note with it: Human immunodeficiency virus 1, 4X; read-out: CIC95.
In experiment [11] the test system is Human immunodeficiency virus 1. Description: Antiviral activity in cells infected with wild-type HIV1 NL4-3 in presence of NHS. The class given is functional. The note with it: Human immunodeficiency virus 1, NL4-3; read-out: CIC95.
Experiment [12] has as its system Human immunodeficiency virus 1. Description: Antiviral activity in cells infected with wild-type HIV1 1026-60C mutant. The note with it: Human immunodeficiency virus 1, 1026-60C; read-out: CIC95. The class given is functional.
In experiment [13] the target is Human immunodeficiency virus type 1 protease (Human immunodeficiency virus 1) (UniProt Q72874). The experiment can be described thus: Ratio of inhibitory effect against HIV1 protease in cellular over isolated enzyme assay. The class given is functional.

As to `O=C(N[C@@H](Cc1ccccc1)[C@@H](O)C[C@]1(Cc2ccccc2)N=CC([C@H]2c3ccccc3C[C@H]2O)=C1O)O[C@H]1CCOC1`, the IC95 in experiment [1] is 0.1 µM; in experiment [2] it was 1.25 µM; in experiment [3], 1.25 µM; in experiment [4], 0.312 µM; in experiment [6], 0.078 µM; in [7], 0.156 µM. The IC95 in [8] was 0.156 µM; in [9] it was 0.625 µM; in [10] it was 1.25 µM; in experiment [11], 0.156 µM; in [12], 0.156 µM. In addition, the negative-log IC50 (pIC50) in experiment [5] is 8.70. Also, the Ratio CIC95/IC50 in experiment [13] was found to be 50.

As for `CC(C)(C)CC(=O)N[C@@H](Cc1ccccc1)[C@@H](O)C[C@]1(Cc2ccccc2)N=CC(C2C[C@H](CC(N)=O)c3ccccc32)=C1O` (some centres undefined), in experiment [1], the IC95 was 12.5 µM. The compound further had a pIC50 in experiment [5] below 6.60.

For the compound `CC(C)(C)CC(=O)N[C@@H](Cc1ccccc1)[C@@H](O)C[C@]1(Cc2ccccc2)N=CC(C2c3ccccc3[C@H]3NC(=O)OC23)=C1O` (some centres undefined), the IC95 in experiment [1] worked out at 3.12 µM. For the same compound, in [5], the pIC50 is 7.02. For the same compound, the Ratio CIC95/IC50 in experiment [13] amounted to 32.5.

As to `CC(C)(C)NC(=O)[C@@H]1CN(Cc2cccnc2)CCN1C[C@@H](O)C[C@@H](Cc1ccccc1)C(=O)N[C@H]1c2ccccc2C[C@H]1O`, the IC95 in [1] came out at 0.025 µM; in [2], 0.4 µM; in experiment [3] it was 0.4 µM; in experiment [4], 0.4 µM; in experiment [6] it was 0.05 µM; in experiment [7], 0.05 µM. Besides, the IC95 in experiment [8] was found to be 0.025 µM; in experiment [9] it was 0.1 µM; in experiment [10], 0.1 µM; in experiment [11], 0.05 µM; in [12] it was 0.4 µM.

Turning to `NC(=O)O[C@@H]1Cc2ccccc2[C@@H]1C1=C(O)[C@](Cc2ccccc2)(C[C@H](O)[C@H](Cc2ccccc2)NC(=O)O[C@H]2CCOC2)N=C1`, the IC95 in [1] is 0.25 µM. In experiment [5], this compound gave a pIC50 of 8.70. The Ratio CIC95/IC50 in experiment [13] turned out to be 125.

Take `O=C(N[C@@H](Cc1ccccc1)[C@@H](O)C[C@]1(Cc2ccccc2)N=CC([C@@H]2CNC(=O)c3ccccc32)=C1O)O[C@H]1CCOC1`: in experiment [1], the IC95 is 0.781 µM. The same compound showed a pIC50 in [5] of 8.24. The Ratio CIC95/IC50 in [13] is 137.

`O=C1N[C@@H]2c3ccccc3C(C3=C(O)[C@](Cc4ccccc4)(C[C@H](O)[C@H](Cc4ccccc4)NC(=O)O[C@H]4CCOC4)N=C3)C2O1` (some centres undefined): the IC95 in [1] is 0.4 µM; in experiment [2], 1.25 µM; in experiment [3] it was 1.25 µM; in experiment [4], 0.312 µM; in [6], 0.625 µM; in experiment [7], 0.625 µM. Moreover, the IC95 in [8] turned out to be 0.625 µM; in experiment [9] it was 0.156 µM; in experiment [10] it was 0.312 µM; in experiment [11] it was 0.625 µM; in experiment [12], 0.312 µM. The pIC50 in experiment [5] was 9.36. Also, in [13], the Ratio CIC95/IC50 stood at 909.

Consider `CC(C)(C)OC(=O)N[C@@H](Cc1ccccc1)[C@@H](O)C[C@]1(Cc2ccccc2)N=CC(C2C[C@H](CC(N)=O)c3ccccc32)=C1O` (some centres undefined), for which the IC95 in experiment [1] was above 0.4 µM. The pIC50 in experiment [5] is 7.69.

For `NC(=O)C[C@H]1CC(C2=C(O)[C@](Cc3ccccc3)(C[C@H](O)[C@H](Cc3ccccc3)NC(=O)O[C@H]3CCOC3)N=C2)c2ccccc21` (some centres undefined), the IC95 in [1] is 0.781 µM; in experiment [2], 2.5 µM; in [3] it was 1.25 µM; in [4], 0.625 µM; in [6], 0.312 µM; in experiment [7], 1.25 µM. The IC95 in experiment [8] amounted to 1.25 µM; in experiment [9], 0.625 µM; in [10], 1.25 µM; in experiment [11], 0.625 µM; in [12], 0.312 µM.

Take `CC(C)(C)OC(=O)N[C@@H](Cc1ccccc1)[C@@H](O)C[C@]1(Cc2ccccc2)N=CC(C2c3ccccc3[C@H]3NC(=O)OC23)=C1O` (some centres undefined): the IC95 in [1] came to 0.2 µM; in [2] it was 10 µM; in experiment [3], 2.5 µM; in experiment [4], 1.25 µM; in experiment [6], 0.156 µM; in [7], 0.156 µM. Also, the IC95 in experiment [8] amounted to 0.312 µM; in experiment [9], 2.5 µM; in experiment [10], 5 µM; in experiment [11], 0.625 µM; in experiment [12] it was 0.625 µM. In experiment [5], this compound had a negative-log IC50 (pIC50) of 8.60. Besides, the Ratio CIC95/IC50 in experiment [13] was found to be 80.
